The text below walks through data of patent US12043600B2, “Microbiocidal compounds” (SYNGENTA CROP PROTECTION AG, priority 2018, dated 2024).

In series [1] the test system is Puccinia recondita f. sp. tritici. Nature of the series: Puccinia recondita f. sp. tritici/Wheat/Leaf Disc Preventative (Brown Rust). Type of series: in vivo. The note with it: foliar, 200 ppm, wheat leaf disc preventative, compared to untreated control, read-out: control of Puccinia recondita f. sp. tritici.
Series [2] relates to Phaeosphaeria nodorum (Septoria nodorum). Nature of the series: Phaeosphaeria nodorum (Septoria nodorum)/Wheat/Leaf Disc Preventative (Glume Blotch). Type of series: in vivo. The note with it: Parastagonospora nodorum, foliar, wheat leaf disc preventative, compared to untreated control. The method in brief: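 Wheat cv. Kanzler leaf discs on agar were sprayed with formulated compound diluted in water and inoculated with P. nodorum spores 2 days later. Discs kept at 20 °C, 75% rh, 12 h light/dark; percent disease control versus untreated scored 5–7 days after application.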

Series [3] concerns Pythium ultimum. The experiment in a line: Pythium ultimum/Liquid Culture (Seedling Damping Off). Type of series: cell-based. The note with it: Globisporangium ultimum, liquid culture, compared to untreated control. How it is done:
Mycelia fragments and oospores of a newly grown liquid culture of the fungus are directly mixed into nutrient broth (PDB potato dextrose broth). After placing a (DMSO) solution of test compound into a microtiter plate (96-well format), the nutrient broth containing the fungal mycelia/spore mixture is added.

The test system of series [4] is Magnaporthe grisea (Pyricularia oryzae). Nature of the series: whole plant or invertebrate. The series is classed as in vivo. The following applies: foliar, read-out: control of Magnaporthe grisea.
Series [5] concerns Glomerella lagenarium (Colletotrichum lagenarium). The experiment in a line: Glomerella lagenarium (Colletotrichum lagenarium)/Liquid Culture (Anthracnose). The following applies: Colletotrichum orbiculare, liquid culture, compared to untreated control. Type of series: cell-based.
For series [6], the system named is Alternaria solani. The experiment in a line: Alternaria solani/Tomato/Leaf Disc (Early Blight). The note with it: foliar, tomato leaf disc, compared to untreated control. The series is classed as in vivo. A digest of the protocol: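 Tomato cv. Baby leaf disks on agar were sprayed with diluted formulated compound and inoculated with spores 2 days later. Incubation at 23° C./21° C. day/night, 80% rh, 12/12 h light; percent disease control versus untreated scored 5-7 days after application.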

Series [7] is described as follows: Photostability assay (Atlas Suntest). The following applies: Suntest 750 W/m^2, spotted on microscope slides. Type of series: physicochemical. The method in brief:
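Compound (2 μl of 1 g/L methanol stock) spotted on glass slides and irradiated at 750 W/m^2 in a Suntest. Slides were washed with H2O:MeCN:THF 50:40:10 and analysed by reverse-phase UPLC-PDA; peak area versus initial gave % parent remaining at 3 hours.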

The test system of series [8] is Blumeria graminis f. sp. tritici (Erysiphe graminis f. sp. tritici). The experiment in a line: Blumeria graminis f. sp. tritici/Wheat/Leaf Disc Preventative (Powdery Mildew on Wheat). Type of series: in vivo. The note with it: foliar, wheat leaf disc preventative, compared to untreated control. A digest of the protocol:
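Wheat cv. Kanzler leaf segments on agar sprayed with formulated compound, inoculated with powdery mildew 1 day later and held at 20° C, 60% rh (24 h dark, then 12 h light/12 h dark). Percent disease control versus untreated scored 6-8 days after application.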

For series [9], the system named is Monographella nivalis (Microdochium nivale). The experiment in a line: Monographella nivalis (Microdochium nivale)/Liquid Culture (Foot Rot Cereals). Type of series: cell-based. The following applies: liquid culture, compared to untreated control. The method in brief:
(§1)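 First, the test compound in DMSO is placed in the wells. Next, potato dextrose broth seeded with conidia taken straight from cryogenic storage is added, and the culture is left to grow.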

For series [10], the system named is Mycosphaerella arachidis (Cercospora arachidicola). Nature of the series: Mycosphaerella arachidis (Cercospora arachidicola)/Liquid Culture (Early Leaf Spot). Type of series: cell-based. The note with it: liquid culture, compared to untreated control. The method in brief:
as §1

Series [11] concerns Thanatephorus cucumeris (Rhizoctonia solani). Nature of the series: Thanatephorus cucumeris (Rhizoctonia solani)/Liquid Culture (Foot Rot, Damping-Off). Type of series: cell-based. The note with it: liquid culture, compared to untreated control. How it is done: Mycelia fragments of a newly grown liquid culture of the fungus are directly mixed into nutrient broth (PDB potato dextrose broth). After placing a (DMSO) solution of the test compounds into a microtiter plate (96-well format), the nutrient broth containing the fungal material is added.

Series [12] has as its system Sclerotinia sclerotiorum. The experiment in a line: Sclerotinia sclerotiorum/Liquid Culture (Cottony Rot). Type of series: cell-based. The note with it: liquid culture, compared to untreated control. As for the experimental part: Mycelia fragments of a newly grown liquid culture of the fungus are directly mixed into nutrient broth (PDB potato dextrose broth). After placing a (DMSO) solution of test compound into a microtiter plate (96-well format) the nutrient broth containing the fungal material is added.

For series [13], the system named is Puccinia recondita f. sp. tritici. Nature of the series: Puccinia recondita f. sp. tritici/Wheat/Leaf Disc Curative (Brown Rust). Type of series: in vivo. The following applies: foliar, wheat leaf disc curative, compared to untreated control. A digest of the protocol: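 Curative leaf-disc test on wheat cv. Kanzler segments on agar, spore-inoculated and kept dark at 19° C, 75% rh; formulated compound in water applied 1 day after inoculation. Incubated at 19° C, 75% rh, 12 h light/12 h dark; percent disease control versus untreated scored 6-8 days after application.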

Series [14] has as its system Plasmopara viticola. Nature of the series: whole plant or invertebrate. Type of series: in vivo. The note with it: foliar, read-out: control of Plasmopara viticola.
Series [15] has as its system Mycosphaerella graminicola (Septoria tritici). Nature of the series: Mycosphaerella graminicola (Septoria tritici)/Liquid Culture (Septoria Blotch). Type of series: cell-based. The following applies: Zymoseptoria tritici; 20 ppm; liquid culture; compared to untreated control. A digest of the protocol:
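Conidia from cryogenic storage mixed into potato dextrose broth and added to microtiter wells already holding DMSO solutions of test compound. Activity expressed as percentage disease control.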

Take `CO/C=C(\Oc1cc(-n2ccc(C(C)(F)F)n2)ccc1C)C(=O)OC` [Compound E-68, methyl (Z)-2-[5-[3-(1,1-difluoroethyl)pyrazol-1-yl]-2-methyl-phenoxy]-3-methoxy-prop-2-enoate]: the melting point (in general, the temperature of the solid-liquid transition) was 119 to 121 °C. Further, in series [1], the pest or weed control at 200 ppm is ≥ 80%. The pest or weed control at 200 ppm in [2] was ≥ 80%. For the same compound, the inhibition of growth (as a rule, the relative decrease from the control value, in per cent) at 20 ppm in [3] is ≥ 80%. Also, in [4], the pest or weed control at 200 ppm is ≥ 80%. In [5], the inhibition of growth at 20 ppm was ≥ 80%. The pest or weed control at 200 ppm in series [6] is ≥ 80%. Also, in series [7], the “% Parent Remaining @ 3 hrs” value was determined as 40%. The pest or weed control at 200 ppm in series [8] is ≥ 80%. Also, in series [9], the inhibition of growth at 20 ppm was ≥ 80%. Moreover, the inhibition of growth at 20 ppm in [10] was ≥ 80%. Further, the inhibition of growth at 20 ppm in [11] is ≥ 80%. Moreover, in series [12], the inhibition of growth at 20 ppm was ≥ 80%. Also, in series [13], the pest or weed control at 200 ppm is ≥ 80%. In series [14], the pest or weed control at 200 ppm is ≥ 80%. Moreover, the inhibition of growth at 20 ppm in [15] was ≥ 80%.
